Test system: thrombi
Assay: Canine Arteriovenous Shunt model
Type: in vivo, dog
Details: first 1 hour shunt period, 150 μCi/kg, i.v.
Experimental: Canine Arteriovenous Shunt Model: Adult mongrel dogs of either sex (9-13 kg) were anesthetized with pentobarbital sodium (35 mg/kg,i.v.) and ventilated with room air via an endotracheal tube (12 strokes/min, 25 ml/kg). For arterial pressure determination, the left carotid artery was cannulated with a saline-filled polyethylene catheter (PE-240) and connected to a Statham pressure transducer (P23ID; Oxnard, Calif.). Mean arterial blood pressure was determined via damping the pulsatile pressure signal. Heart rate was monitored using a cardiotachometer (Biotach, Grass Quincy, Mass.) triggered from a lead II electrocardiogram generated by limb leads. A jugular vein was cannulated (PE-240) for drug administration. The both femoral arteries and femoral veins were cannulated with silicon treated (Sigmacote, Sigma Chemical Co. St Louis, Mo.), saline filled polyethylene tubing (PE-200) and connected with a 5 cm section of silicon treated tubing (PE-240) to form an extracorporeal arterio-venous shunts (A-V). Shunt patency was monitored using a doppler flow system (model VF-1, Crystal Biotech Inc, Hopkinton, Mass.) and flow probe (2-2.3 mm, Titronics Med. Inst., Iowa City, Iowa) placed proximal to the locus of the shunt. All parameters were monitored continuously on a polygraph recorder (model 7D Grass) at a paper speed of 10 mm/min or 25 mm/sec.
On completion of a 15 min post surgical stabilization period, an occlusive thrombus was formed by the introduction of a thrombogenic surface (4-0 braided silk thread, 5 cm in length, Ethicon Inc., Somerville, N.J.) into the shunt one shunt with the other serving as a control. Two consecutive 1 hr shunt periods were employed with the test agent administered as an infusion over 5 min beginning 5 min before insertion of the thrombogenic surface. At the end of each 1 hr shunt period the silk was carefully removed and weighed and the % incorporation determined via well counting. Thrombus weight was calculated by subtracting the weight of the silk prior to placement from the total weight of the silk on removal from the shunt. […]

^99m Tc(tricine) (tris(1-pyrazolyl)borohydride)-Cyclo(D-Val-NMeArg-Gly-Asp-Mamb(hydrazino-nicotinyl-5-Aca)) [Example 1]
uptake in thrombi compared with positive control (In-111-platelets) and negative controls (Tc-99m-albumin, I-125-fibrinogen) (mixed arterial and venous conditions): taken up in thrombi under both mixed arterial and venous conditions equivalently to the positive control and to a significantly greater extent than the negative controls | thrombus-to-blood ratio (target-to-background ratio) (mixed arterial conditions): 114 | thrombus-to-blood ratio (target-to-background ratio) (venous conditions): 3.1
